Patent US9949485B2, “Use of acylsulfonamides for improving plant yield” (BAYER CROPSCIENCE AG, priority 2013, dated 2018)

Tests used:
[1] = test system: Triticum aestivum variety “AC Harvest”; experiment: Growth chamber trial, post-emergence spray application, grain yield at full maturity; assay type: in vivo; conditions: single active ingredient, dose rate 10 g ai/ha; for change in vivo at 10 g/ha / response vs control in vivo at 10 g/ha: Triticum aestivum, post-emergence; for change in vivo at 10 g/ha: grain yield difference, read-out: Difference (%) vs. UTC; for response vs control in vivo at 10 g/ha: grain yield relative to UTC (100.0); for Grain Yield, g/plant: spray at BBCH 56-61, slightly reduced water, average of five replicates
[2] = test system: Triiticum aestivum seeds (TRZAS); experiment: Seed treatment trial, grain yield; assay type: in vivo, Triticum aestivum; conditions: for Difference (%) vs. UTC: grain yield difference; for Relative, %: grain yield relative to UTC (100.0)
[3] = single active ingredient, 1 g ai/kg seed

SMILES: CN/C(=N\[N+](=O)[O-])NCc1cnc(Cl)s1 [Clothianidin (I-3), clothianidin]
- change in vivo at 10 g/ha [1]: 12.3%
- response vs control in vivo at 10 g/ha [1]: 112%

SMILES: CNC(=O)Nc1ccc(S(=O)(=O)NC(=O)c2ccccc2OC)cc1 [Compound (A1), N-(2-methoxybenzoyl)-4-[(methylaminocarbonyl)amino]benzenesulfonamide]
- Grain Yield, g/plant ([2]; dose rate 0.5 g ai/kg seed): 1.90 g/plant
- Difference (%) vs. UTC ([2]; 0.5 g ai/kg seed): +5.6%
- Difference (%) vs. UTC [2, 3]: +3.9%
- Relative, % ([2]; 0.5 g ai/kg seed): 105.6%
- Relative, % [2, 3]: 103.9%
- Grain Yield, g/plant ([2]; single active ingredient, dose rate 1 g ai/kg seed): 1.87 g/plant
- change in vivo at 10 g/ha [1]: 12.3%
- response vs control in vivo at 10 g/ha [1]: 112%
- Grain Yield, g/plant [1]: 1.19 g/plant

SMILES: CC1COC(Cn2cncn2)(c2ccc(Oc3ccc(Cl)cc3)cc2Cl)O1 (centres unmarked) [Difenoconazole (F-105), difenoconazole]
- change in vivo at 10 g/ha [1]: -3.8%
- response vs control in vivo at 10 g/ha [1]: 96.2%

SMILES: N#Cc1nn(-c2c(Cl)cc(C(F)(F)F)cc2Cl)c(N)c1[S+]([O-])C(F)(F)F (centres unmarked) [Fipronil (I-8), fipronil]
- change in vivo at 10 g/ha [1]: 12.3%
- response vs control in vivo at 10 g/ha [1]: 112%

SMILES: O=[N+]([O-])NC1=NCCN1Cc1ccc(Cl)nc1 [Imidacloprid (I-11), imidacloprid]
- change in vivo at 10 g/ha [1]: 7.5%
- response vs control in vivo at 10 g/ha [1]: 108%

SMILES: OC(Cc1ccccc1Cl)(Cn1nc[nH]c1=S)C1(Cl)CC1 (centres unmarked) [Prothioconazole (F-124), prothioconazole]
- change in vivo at 10 g/ha [1]: -3.8%
- response vs control in vivo at 10 g/ha [1]: 96.2%

SMILES: COC(=O)N(OC)c1ccccc1COc1ccn(-c2ccc(Cl)cc2)n1 [Pyraclostrobin (F-57), pyraclostrobin]
- change in vivo at 10 g/ha [1]: 17%
- response vs control in vivo at 10 g/ha [1]: 117%

SMILES: CN1COCN(Cc2cnc(Cl)s2)/C1=N\[N+](=O)[O-] [Thiamethoxam (I-19), thiamethoxam]
- change in vivo at 10 g/ha [1]: 22.6%
- response vs control in vivo at 10 g/ha [1]: 123%
- Grain Yield, g/plant [1]: 1.30 g/plant

SMILES: CON=C(C(=O)OC)c1ccccc1CON=C(C)c1cccc(C(F)(F)F)c1 [Trifloxystrobin (F-60), trifloxystrobin]
- change in vivo at 10 g/ha [1]: 5.7%
- response vs control in vivo at 10 g/ha [1]: 106%
